Data reported in patent publication US10493035B2, “Tablets comprising 2-hydroxy-6-((2-(1-isopropyl-1H-pyrazol-5-yl)pyridin-3-yl)methoxy)benzaldehyde” (Global Blood Therapeutics, Inc., priority 2016, dated 2019).
One block for each compound: values may come before it.

Legend:
[1] = Physicochemical and biopharmaceutical properties of Compound 1 and its crystal forms
Description: Compound 1 is a BCS II compound, where its solubility is the primary biopharmaceutical factor limiting absorption. Compound 1 exists in one form as an ansolvate crystalline form characterized by at least two, three or four X-ray powder diffraction peaks (Cu Kα radiation) selected from 13.37°, 14.37°, 19.95° and 23.92° 2θ (each ±0.2° 2θ) (see, e.g., PCT application Publication No. WO 2015/120133 A1, incorporated herein by reference in its entirety and for all purposes). This form can hereinafter also be referred to as Form II. The physicochemical properties of Compound 1, including its Form II, are not as conducive (compared to other drug substances for formulation) to making a high dosage form of Compound 1. […] The bulk density of Form II of Compound 1 is considered low and its flowability considered poor. Upon milling, the flowability decreases. […] Form II of Compound 1 is also prone to sticking to steel surfaces, such as in processing equipment for tablet manufacture.
In addition, another ansolvate crystalline form of Compound 1, referred to as Form N, is known. Form N has an enantiotropic relationship with Form II, with a transition temperature approximately in the range 30-40° C. Thus, under temperatures (e.g. storage) below 40° C., e.g., at 25° C., Compound 1 is more thermodynamically stable as Form II and at temperatures above 40° C., e.g., at 50° C., Compound 1 is more thermodynamically stable as Form N. To design tablets containing Compound 1, the above physicochemical property limitations of Compound 1 and the high dose requirements need to be accommodated while ensuring that the tablets have dissolution properties that lead to a therapeutic effect.

[2] = Compression profile of neat Form II API (hydraulic press, 200 mg compacts); assay type: physicochemical; details: for Tablet Hardness / Tablet Thickness: neat API 200 mg
Description: The compressibility of crystalline Form II of Compound 1 (“API”) was determined by compressing neat unformulated API at 200 mg scale compressed in a hydraulic press using 5/16th inch diameter, standard concave round tooling. The resulting tablets were measured for thickness using a digital caliper gauge, and for tensile strength using a tablet hardness tester. […] Lots 1a and 2 were directly from the API manufacturing process, but from different API suppliers. Lot 1b was prepared by taking Lot 1a and subjecting it to hammer milling to cause reduction of particle size.

[3] = compression force 2000 lbf, listed as 1a
[4] = compression force 3000 lbf, listed as 1a
[5] = compression force 4000 lbf, listed as 1a
[6] = compression force 2000 lbf, listed as 2
[7] = compression force 3000 lbf, listed as 2
[8] = compression force 4000 lbf, listed as 2
[9] = compression force 2000 lbf, listed as 1b
[10] = compression force 3000 lbf, listed as 1b
[11] = compression force 4000 lbf, listed as 1b

Tablet Hardness [2, 3]: 1.8 kp
Tablet Thickness [2, 3]: 4.50 mm
Tablet Hardness [2, 4]: 1.5 kp
Tablet Thickness [2, 4]: 4.34 mm
Tablet Hardness [2, 5]: 1.0 kp
Tablet Thickness [2, 5]: 4.35 mm
Structure (SMILES): CC(C)n1nccc1-c1ncccc1COc1cccc(O)c1C=O [Lot 1a, 2-hydroxy-6-((2-(1-isopropyl-1H-pyrazol-5-yl)pyridin-3-yl)methoxy)benzaldehyde]

Tablet Hardness [2, 9]: 2.4 kp
Tablet Thickness [2, 9]: 4.55 mm
Tablet Hardness [2, 10]: 1.2 kp
Tablet Thickness [2, 10]: 4.32 mm
Tablet Hardness [2, 11]: 1.5 kp
Tablet Thickness [2, 11]: 4.43 mm
Structure (SMILES): CC(C)n1nccc1-c1ncccc1COc1cccc(O)c1C=O [Lot 1b, 2-hydroxy-6-((2-(1-isopropyl-1H-pyrazol-5-yl)pyridin-3-yl)methoxy)benzaldehyde]

Further lines, the compound ahead of its results:

Structure (SMILES): CC(C)n1nccc1-c1ncccc1COc1cccc(O)c1C=O [Compound 1, 2-hydroxy-6-((2-(1-isopropyl-1H-pyrazol-5-yl)pyridin-3-yl)methoxy)benzaldehyde]
BCS class [1]: BCS II

Structure (SMILES): CC(C)n1nccc1-c1ncccc1COc1cccc(O)c1C=O [Form N, 2-hydroxy-6-((2-(1-isopropyl-1H-pyrazol-5-yl)pyridin-3-yl)methoxy)benzaldehyde]
Transition temperature of the enantiotropic relationship with Form II [1]: 30-40 °C

Structure (SMILES): CC(C)n1nccc1-c1ncccc1COc1cccc(O)c1C=O [Lot 2, 2-hydroxy-6-((2-(1-isopropyl-1H-pyrazol-5-yl)pyridin-3-yl)methoxy)benzaldehyde]
Tablet Hardness [2, 6]: 9.0 kp
Tablet Thickness [2, 6]: 4.50 mm
Tablet Hardness [2, 7]: 3.7 kp
Tablet Thickness [2, 7]: 4.27 mm
Tablet Hardness [2, 8]: 3.4 kp
Tablet Thickness [2, 8]: 4.31 mm

Structure (SMILES): CC(C)n1nccc1-c1ncccc1COc1cccc(O)c1C=O [Form II of Compound 1, 2-hydroxy-6-((2-(1-isopropyl-1H-pyrazol-5-yl)pyridin-3-yl)methoxy)benzaldehyde]
Compressibility (in words) ([2]; neat API): relatively incompressible solid
Lipophilicity (in words) [1]: lipophilic
Water solubility (in words) [1]: poorly water soluble
